Assay results reported in patent US11427549B2, “Pyrimidinyloxy benzo-fused compounds as herbicides” (FMC Corporation, priority 2017, dated 2022).

Tests used:
kochia (Kochia scoparia) [1] = experiment: Test A preemergence, kochia; assay type: in vivo; conditions: 0 to 100 scale (0 no effect, 100 complete control)
Text: (§1) Seeds of plant species selected from barnyardgrass (Echinochloa crus-galli), kochia (Kochia scoparia), ragweed (common ragweed, Ambrosia elatior), ryegrass, Italian (Italian ryegrass, Lolium multiflorum), foxtail, giant (giant foxtail, Setaria faberii), foxtail, green (green foxtail, Setaria viridis) and pigweed (Amaranthus retroflexus) were planted into a blend of loam soil and sand and treated preemergence with a directed soil spray using test chemicals formulated in a non-phytotoxic solvent mixture which included a surfactant.
(§2) At the same time, plants selected from these weed species and also wheat (Triticum aestivum), corn (Zea mays), blackgrass (Alopecurus myosuroides), and galium (catchweed bedstraw, Galium aparine) were planted in pots containing the same blend of loam soil and sand and treated with postemergence applications of test chemicals formulated in the same manner. Plants ranged in height from 2 to 10 cm and were in the one- to two-leaf stage for the postemergence treatment. Treated plants and untreated controls were maintained in a greenhouse for approximately 10 days, after which time all treated plants were compared to untreated controls and visually evaluated for injury. […] A dash (-) response means no test result.

[2] = test system: wheat (Triticum aestivum); experiment: Test A postemergence, wheat; assay type: in vivo; conditions: 0 to 100 scale (0 no effect, 100 complete control)
Text: as §1, §2

[3] = test system: galium (catchweed bedstraw, Galium aparine); experiment: Test A postemergence, galium; assay type: in vivo; conditions: 0 to 100 scale (0 no effect, 100 complete control)
Text: as §1, §2

[4] = test system: ryegrass, Italian (Italian ryegrass, Lolium multiflorum); experiment: Test A preemergence, ryegrass, Italian; assay type: in vivo; conditions: 0 to 100 scale (0 no effect, 100 complete control)
Text: as §1, §2

[5] = test system: blackgrass (Alopecurus myosuroides); experiment: Test A postemergence, blackgrass; assay type: in vivo; conditions: 0 to 100 scale (0 no effect, 100 complete control)
Text: as §1, §2

kochia (Kochia scoparia) [6] = experiment: Test A postemergence, kochia; assay type: in vivo; conditions: 0 to 100 scale (0 no effect, 100 complete control)
Text: as §1, §2

[7] = test system: ducksalad (Heteranthera limosa); experiment: Test B flooded paddy test, ducksalad; conditions: Flood, 250 g ai/ha, applied to paddy water, 2-leaf stage, visually evaluated after 13 to 15 days
[8] = test system: ragweed (common ragweed, Ambrosia elatior); experiment: Test A preemergence, ragweed; assay type: in vivo; conditions: 0 to 100 scale (0 no effect, 100 complete control)
Text: as §1, §2

[9] = test system: ryegrass, Italian (Italian ryegrass, Lolium multiflorum); experiment: Test A postemergence, ryegrass, Italian; assay type: in vivo; conditions: 0 to 100 scale (0 no effect, 100 complete control)
Text: as §1, §2

corn (Zea mays) = experiment: Test A postemergence, corn; assay type: in vivo; conditions: 0 to 100 scale (0 no effect, 100 complete control)
Text: as §1, §2

[10] = test system: barnyardgrass (Echinochloa crus-galli); experiment: Test A preemergence, barnyardgrass; assay type: in vivo; conditions: 0 to 100 scale (0 no effect, 100 complete control)
Text: as §1, §2

[11] = test system: ragweed (common ragweed, Ambrosia elatior); experiment: Test A postemergence, ragweed; assay type: in vivo; conditions: 0 to 100 scale (0 no effect, 100 complete control)
Text: as §1, §2

[12] = test system: barnyardgrass (Echinochloa crus-galli); experiment: Test B flooded paddy test, barnyardgrass; conditions: Flood, 250 g ai/ha, applied to paddy water, 2-leaf stage, visually evaluated after 13 to 15 days
[13] = test system: foxtail, green (green foxtail, Setaria viridis); experiment: Test A postemergence, foxtail, green; assay type: in vivo; conditions: 0 to 100 scale (0 no effect, 100 complete control)
Text: as §1, §2

[14] = test system: pigweed (Amaranthus retroflexus); experiment: Test A postemergence, pigweed; assay type: in vivo; conditions: 0 to 100 scale (0 no effect, 100 complete control)
Text: as §1, §2

[15] = test system: foxtail, green (green foxtail, Setaria viridis); experiment: Test A preemergence, foxtail, green; assay type: in vivo; conditions: 0 to 100 scale (0 no effect, 100 complete control)
Text: as §1, §2

rice (Oryza sativa) = experiment: Test B flooded paddy test, rice; conditions: Flood, 250 g ai/ha, applied to paddy water, 2-leaf stage, visually evaluated after 13 to 15 days
[16] = test system: barnyardgrass (Echinochloa crus-galli); experiment: Test A postemergence, barnyardgrass; assay type: in vivo; conditions: 0 to 100 scale (0 no effect, 100 complete control)
Text: as §1, §2

[17] = test system: pigweed (Amaranthus retroflexus); experiment: Test A preemergence, pigweed; assay type: in vivo; conditions: 0 to 100 scale (0 no effect, 100 complete control)
Text: as §1, §2

[18] = test system: foxtail, giant (giant foxtail, Setaria faberii); experiment: Test A preemergence, foxtail, giant; assay type: in vivo; conditions: 0 to 100 scale (0 no effect, 100 complete control)
Text: as §1, §2

[19] = test system: foxtail, giant (giant foxtail, Setaria faberii); experiment: Test A postemergence, foxtail, giant; assay type: in vivo; conditions: 0 to 100 scale (0 no effect, 100 complete control)
Text: as §1, §2

Row | Molecule | Plant response rating, Kochia (kochia (Kochia scoparia) [1]; 125 g ai/ha) | Plant response rating, Wheat ([2]; 125 g ai/ha) | Plant response rating, Galium ([3]; 125 g ai/ha) | Plant response rating, Ryegrass, Italian ([4]; 125 g ai/ha) | Plant response rating, Blackgrass ([5]; 125 g ai/ha) | Plant response rating, Kochia (kochia (Kochia scoparia) [6]; 125 g ai/ha) | Plant response rating, Ducksalad (0 to 100 scale, 0 is no effect, 100 is complete control) [7] | Plant response rating, Ragweed ([8]; 125 g ai/ha) | Plant response rating, Ryegrass, Italian ([9]; 125 g ai/ha) | Plant response rating, Corn (corn (Zea mays); 125 g ai/ha) | Plant response rating, Barnyardgrass ([10]; 125 g ai/ha) | Plant response rating, Ragweed ([11]; 125 g ai/ha) | Plant response rating, Barnyardgrass (0 to 100 scale, 0 is no effect, 100 is complete control) [12] | Plant response rating, Foxtail, Green ([13]; 125 g ai/ha) | Plant response rating, Pigweed ([14]; 125 g ai/ha) | Plant response rating, Foxtail, Green ([15]; 125 g ai/ha) | Plant response rating, Rice (0 to 100 scale, 0 is no effect, 100 is complete control) (rice (Oryza sativa)) | Plant response rating, Barnyardgrass ([16]; 125 g ai/ha) | Plant response rating, Pigweed ([17]; 125 g ai/ha) | Plant response rating, Kochia (kochia (Kochia scoparia) [1]; 31 g ai/ha) | further results
1 | 5-Chloro-2-[[1-oxido-3-(4,4,4-trifluorobutyl)-3H-2,1-benzoxathiol-4-yl]oxy]pyrimidine [Compound 15] | 20 | 10 | 80 | 0 | 30 | 80 | 0 | 0 | 20 | 20 | 30 | 30 | 0 | 20 | 70 | 50 | 0 | 30 | 70 |  | Plant response rating, Kochia (kochia (Kochia scoparia) [1]; 500 g ai/ha): 80; Plant response rating, Wheat ([2]; 500 g ai/ha): 30; Plant response rating, Galium ([3]; 500 g ai/ha): 80; Plant response rating, Ryegrass, Italian ([4]; 500 g ai/ha): 30; Plant response rating, Blackgrass ([5]; 500 g ai/ha): 90; Plant response rating, Kochia (kochia (Kochia scoparia) [6]; 500 g ai/ha): 90; Plant response rating, Ragweed ([8]; 500 g ai/ha): 20; Plant response rating, Ryegrass, Italian ([9]; 500 g ai/ha): 90; Plant response rating, Corn (corn (Zea mays); 500 g ai/ha): 40; Plant response rating, Barnyardgrass ([10]; 500 g ai/ha): 70; Plant response rating, Ragweed ([11]; 500 g ai/ha): 60; Plant response rating, Foxtail, Green ([13]; 500 g ai/ha): 80; Plant response rating, Pigweed ([14]; 500 g ai/ha): 90; Plant response rating, Foxtail, Green ([15]; 500 g ai/ha): 100; Plant response rating, Barnyardgrass ([16]; 500 g ai/ha): 60; Plant response rating, Pigweed ([17]; 500 g ai/ha): 100
2 | O=C1CC(CCCC(F)(F)F)c2c(Oc3ncc(Cl)cn3)cccc21 (stereo not shown) [Compound 6, 4-[(5-Chloropyrimidin-2-pyrimidinyl)oxy]-2,3-dihydro-3-(4,4,4-trifluorobutyl)-1H-inden-1-one] | 80 | 10 | 90 | 10 | 30 | 60 | 100 | 0 | 30 | 20 | 90 | 0 | 40 | 40 | 100 | 100 | 20 | 40 | 100 | 0 | Plant response rating, Wheat ([2]; 31 g ai/ha): 0; Plant response rating, Galium ([3]; 31 g ai/ha): 60; Plant response rating, Ryegrass, Italian ([4]; 31 g ai/ha): 0; Plant response rating, Blackgrass ([5]; 31 g ai/ha): 10; Plant response rating, Kochia (kochia (Kochia scoparia) [6]; 31 g ai/ha): 10; Plant response rating, Ragweed ([8]; 31 g ai/ha): 0; Plant response rating, Ryegrass, Italian ([9]; 31 g ai/ha): 0; Plant response rating, Corn (corn (Zea mays); 31 g ai/ha): 0; Plant response rating, Barnyardgrass ([10]; 31 g ai/ha): 0; Plant response rating, Ragweed ([11]; 31 g ai/ha): 0; Plant response rating, Foxtail, Green ([13]; 31 g ai/ha): 10; Plant response rating, Pigweed ([14]; 31 g ai/ha): 90; Plant response rating, Foxtail, Green ([15]; 31 g ai/ha): 20; Plant response rating, Barnyardgrass ([16]; 31 g ai/ha): 10; Plant response rating, Pigweed ([17]; 31 g ai/ha): 0
3 | O=C1OCC(CCCC(F)(F)F)c2c(Oc3ncc(Cl)cn3)cccc21 (stereo not shown) [Compound 16, 5-[(5-Chloro-2-pyrimidinyl)oxy]-3,4-dihydro-4-(4,4,4,-trifluorobutyl)-1H-2benzopyran-1-one] | 100 | 50 | 100 | 70 | 90 | 100 | 100 |  | 80 | 40 | 100 | 50 | 75 |  | 100 |  | 15 | 80 | 100 | 10 | Plant response rating, Wheat ([2]; 31 g ai/ha): 50; Plant response rating, Galium ([3]; 31 g ai/ha): 90; Plant response rating, Ryegrass, Italian ([4]; 31 g ai/ha): 10; Plant response rating, Blackgrass ([5]; 31 g ai/ha): 80; Plant response rating, Kochia (kochia (Kochia scoparia) [6]; 31 g ai/ha): 80; Plant response rating, Ryegrass, Italian ([9]; 31 g ai/ha): 20; Plant response rating, Corn (corn (Zea mays); 31 g ai/ha): 0; Plant response rating, Barnyardgrass ([10]; 31 g ai/ha): 60; Plant response rating, Ragweed ([11]; 31 g ai/ha): 10; Plant response rating, Pigweed ([14]; 31 g ai/ha): 80; Plant response rating, Foxtail, Giant ([18]; 31 g ai/ha): 80; Plant response rating, Foxtail, Giant ([18]; 125 g ai/ha): 100; Plant response rating, Barnyardgrass ([16]; 31 g ai/ha): 30; Plant response rating, Foxtail, Giant ([19]; 31 g ai/ha): 30; Plant response rating, Foxtail, Giant ([19]; 125 g ai/ha): 90; Plant response rating, Pigweed ([17]; 31 g ai/ha): 100
